Experimental data from PMC3759959, “Design, Synthesis and Antiviral Activity Studies of Schizonepetin Derivatives” (International Journal of Molecular Sciences, 2013).
Like-named read-outs stand apart in the source and are kept apart here.

Assays:
Vero cells = test: Cytotoxicity by CPE assay in Vero cells; assay type: cell-based; settings: 72 h
Protocol: (§1) The cytotoxicity was evaluated by cytopathic effect (CPE) inhibition assay. Vero cells were seeded into 96-well plates. After cells had been incubated for 24 h at 37 °C in 5% CO2, they were exposed to drugs with two-fold serial dilutions. Untreated Vero cells were used as controls. All cultures were incubated again in 5% CO2 at 37 °C for 72 h. The cells were examined microscopically for the cytotoxicity effects. Then TC50 were calculated by the Reed-Muench method.

HSV-1 virus = test: Anti HSV-1 CPE inhibition assay in Vero cells; settings: for IC50: read-out: IC50, antiviral activity against HSV-1 virus; for antiviral activity against HSV-1 (in words): in vitro
MDCK cells = test: Cytotoxicity against MDCK cells by CPE assay; assay type: cell-based
Protocol: as §1
The procedures for Anti-H3N2 studies and cytotoxicity against MDCK cells in vitro by CPE inhibition assay were similar to Anti HSV-1 studies and cytotoxicity against Vero cells.

influenza virus H3N2 = test: Anti-H3N2 CPE inhibition assay in MDCK cells; settings: for IC50: read-out: IC50, antiviral activity against H3N2 virus; for antiviral activity against influenza virus H3N2 (in words): in vitro
[1] = test system: abdominal capillary permeability; settings: cited from earlier work
H1N1 = settings: previous study; cited from earlier work
[2] = Human alphaherpesvirus 1, Vero, 72 h
[3] = cytotoxicity, Vero cells, Reed-Muench method

Row | Compound | TC50 (Antiviral activity against HSV-1 virus section) (Vero cells; African green monkey) | IC50 (HSV-1 virus; [2]) | TI (TC50/IC50), HSV-1 virus (HSV-1 virus) | TC50 (Antiviral activity against HSV-1 virus section) (Vero cells; [3]) | TC50 (Antiviral activity against H3N2 virus section) (MDCK cells) | IC50 (influenza virus H3N2; Influenza A virus, H3N2, MDCK) | antiviral activity against HSV-1 (in words) (HSV-1 virus; CPE inhibition) | antiviral activity against influenza virus H3N2 (in words) (influenza virus H3N2; CPE inhibition) | TI (TC50/IC50), H3N2 virus (influenza virus H3N2) | effect on increase of abdominal capillary permeability by HAc [1] | therapeutic effect on the H1N1 infected mice (H1N1) | IC50 (HSV-1 virus; CPE inhibition, Vero cells, 30 TCID50, 72 h) | IC50 (influenza virus H3N2; CPE inhibition, MDCK cells)
1 | Nc1nc2c(ncn2COCCO)c(=O)[nH]1 [Aciclovir, reference compound] | >666.0 µM | 4.9 µM | >136.4 |  |  |  |  |  |  |  |  |  | 
2 | CO[C@@]12C[C@H](C)CCC1=C(C)C(=O)O2 [M1, (6R,7aR)-7a-Methoxy-3,6-Dimethyl-5,6,7,7a-Tetrahydrobenzofuran-2(4H)-One] |  | > 11.5 µM |  | 366.8 µM | 298.5 µM | > 39.1 µM |  |  |  |  |  |  | 
3 | CCO[C@@]12C[C@H](C)CCC1=C(C)C(=O)O2 [M2, (6R,7aR)-7a-Ethoxy-3,6-Dimethyl-5,6,7,7a-Tetrahydrobenzofuran-2(4H)-One] |  | 100 µM | 2.5 | 246.7 µM | 139.5 µM | > 39.1 µM | obvious antiviral activity |  |  |  |  |  | 
4 | CC(=O)O[C@@]12C[C@H](C)CCC1=C(C)C(=O)O2 [M4, (6R,7aR)-3,6-Dimethyl-2-oxo-2,4,5,6,7,7a-Hexahydrobenzofuran-7a-Yl Acetate] |  | 93.8 µM | 4.0 | 374.6 µM | 319.2 µM | > 39.1 µM | obvious antiviral activity |  |  |  |  |  | 
5 | CCC(=O)O[C@@]12C[C@H](C)CCC1=C(C)C(=O)O2 [M5, (6R,7aR)-3,6-Dimethyl-2-oxo-2,4,5,6,7,7a-Hexahydrobenzofuran-7a-yl Propionate] |  | 26.9 µM | 2.5 | 66.0 µM | 39.1 µM | > 39.1 µM | obvious antiviral activity |  |  |  |  |  | 
6 | CC1=C2CC[C@@H](C)C[C@]2(OC(=O)c2ccccc2)OC1=O [M8, (6R,7aS)-3,6-Dimethyl-2-Oxo-2,4,5,6,7,7a-Hexahydrobenzofuran-7a-yl Benzoate] |  | > 11.5 µM |  | 24.8 µM | 54.2 µM | > 39.1 µM |  |  |  |  |  |  | 
7 | CC1=C2CC[C@@H](C)C[C@]2(OC(=O)c2ccc([N+](=O)[O-])cc2)OC1=O [M9, (6R,7aS)-3,6-Dimethyl-2-Oxo-2,4,5,6,7,7a-Hexahydrobenzofuran-7a-yl 4-Nitrobenzoate] |  | > 11.5 µM |  | 216.0 µM | 216.0 µM | > 39.1 µM |  |  |  |  |  |  | 
8 | CC1=C2CC[C@@H](C)C[C@]2(OC(=O)c2ccc(I)cc2)OC1=O [M10, (6R,7aS)-3,6-Dimethyl-2-Oxo-2,4,5,6,7,7a-Hexahydrobenzofuran-7a-yl 4-Iodobenzoate] |  | > 11.5 µM |  | 44.2 µM | 41.3 µM | > 39.1 µM |  | little effect |  |  |  |  | 
9 | CC1=C2CC[C@@H](C)C[C@]2(OC(=O)c2ccc(Cl)cc2)OC1=O [M11, (6R,7aS)-3,6-Dimethyl-2-Oxo-2,4,5,6,7,7a-Hexahydrobenzofuran-7a-yl 4-Chlorobenzoate] |  | > 11.5 µM |  | 47.1 µM | 47.1 µM | > 39.1 µM |  | little effect |  |  |  |  | 
10 | CC1=C2CC[C@@H](C)C[C@@]2(OC(=O)c2cccnc2)OC1=O [M21, (6R,7aS)-3,6-Dimethyl-2-Oxo-2,4,5,6,7,7a-Hexahydrobenzofuran-7a-yl Nicotinate] |  | > 11.5 µM |  | 439.0 µM | 180.5 µM | > 39.1 µM |  |  |  |  |  |  | 
11 | CC1=C2CC[C@@H](C)C[C@]2(OC(=O)c2ccc(F)cc2)OC1=O [M22, (6R,7aS)-3,6-Dimethyl-2-Oxo-2,4,5,6,7,7a-Hexahydrobenzofuran-7a-yl 4-Fluorobenzoate] |  | > 11.5 µM |  | 87.8 µM | 60.5 µM | > 39.1 µM |  | little effect |  |  |  |  | 
12 | CC1=C2CC[C@@H](C)C[C@]2(OC(=O)c2cccc(Cl)c2)OC1=O [M25, (6R,7aS)-3,6-Dimethyl-2-Oxo-2,4,5,6,7,7a-Hexahydrobenzofuran-7a-yl 3-Chlorobenzoate] |  | > 11.5 µM |  | 11.5 µM | 80.8 µM | > 39.1 µM |  | little effect |  |  |  |  | 
13 | CC1=C2CC[C@@H](C)C[C@@]2(OC(=O)c2cccs2)OC1=O [M27, (6R,7aS)-3,6-Dimethyl-2-Oxo-2,4,5,6,7,7a-Hexahydrobenzofuran-7a-yl Thiophene-2-Carboxylate] |  | > 11.5 µM |  | 100.3 µM | 177.4 µM | > 39.1 µM |  |  |  |  |  |  | 
14 | CC1=C2CC[C@@H](C)C[C@]2(OC(=O)c2cccc(F)c2)OC1=O [M28, (6R,7aS)-3,6-Dimethyl-2-Oxo-2,4,5,6,7,7a-Hexahydrobenzofuran-7a-yl 3-Fluorobenzoate] |  | > 11.5 µM |  | 170.4 µM | 96.4 µM | 34.5 µM |  | high antiviral activity | 2.8 |  |  |  | 
15 | CC1=C2CC[C@@H](C)C[C@]2(OC(=O)c2cccc(I)c2)OC1=O [M29, (6R,7aS)-3,6-Dimethyl-2-oxo-2,4,5,6,7,7a-Hexahydrobenzofuran-7a-yl 3-Iodobenzoate] |  | > 11.5 µM |  | 45.4 µM | 71.1 µM | > 39.1 µM |  | little effect |  |  |  |  | 
16 | CC1=C2CC[C@@H](C)C[C@]2(OC(=O)c2cccc(Br)c2)OC1=O [M31, (6R,7aS)-3,6-Dimethyl-2-Oxo-2,4,5,6,7,7a-Hexahydrobenzofuran-7a-yl 3-Bromobenzoate] |  | > 11.5 µM |  | 80.3 µM | 80.3 µM | > 39.1 µM | little effect | little effect |  |  |  |  | 
17 | CC1=C2CC[C@@H](C)C[C@]2(OC(=O)c2ccc(Br)cc2)OC1=O [M33, (6R,7aS)-3,6-Dimethyl-2-Oxo-2,4,5,6,7,7a-Hexahydrobenzofuran-7a-yl 4-Bromobenzoate] |  | > 11.5 µM |  | 80.3 µM | 71.0 µM | 13.7 µM | little effect | high antiviral activity | 5.2 |  |  |  | 
18 | CC1=C2CC[C@@H](C)C[C@@]2(OC(=O)c2ccccc2Br)OC1=O [M34, (6R,7aS)-3,6-Dimethyl-2-Oxo-2,4,5,6,7,7a-Hexahydrobenzofuran-7a-yl 2-Bromobenzoate] |  | 17.1 µM | 4.7 | 80.3 µM | 71.0 µM | > 39.1 µM | obvious antiviral activity | little effect |  |  |  |  | 
19 | CC1=C2CC[C@@H](C)C[C@@]2(OC(=O)c2ccc(C(F)(F)F)cc2)OC1=O [M35, (6R,7aS)-3,6-Dimethyl-2-Oxo-2,4,5,6,7,7a-Hexahydrobenzofuran-7a-yl 4-(Trifluoromethyl) Benzoate] |  | > 11.5 µM |  | 82.8 µM | 75.4 µM | 29.7 µM |  | high antiviral activity | 2.5 |  |  |  | 
20 | NC(=O)c1ncn([C@@H]2O[C@H](CO)[C@@H](O)[C@H]2O)n1 [Ribavirin, reference compound] |  |  |  |  |  | 1020 µM |  |  |  |  |  |  | 
21 | CC1=C2CC[C@@H](C)C[C@@]2(O)OC1=O [Schizonepetin] |  |  |  | 834.2 µM | 829.4 µM |  | low antiviral activity | low antiviral activity |  | inhibit the increase of abdominal capillary permeability | obviously positive therapeutic effect | > 11.5 µM | > 39.1 µM
